Reference: PubChem BioAssay (NCI)
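Test compounds were applied to cells in 96-well plates for 48 hours at 5 doses. Abbreviation: GI50, concentration required for 50% inhibition of growth. TGI denotes the concentration required for complete inhibition of growth.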

Legend:
Assay in all cases: DTP human tumour cell line panel, 48 h
[1] = system: TK-10 renal
[2] = system: NCI-H460 lung
[3] = system: M14 melanoma
[4] = system: HCT-15 colon
[5] = system: SF-268 CNS
[6] = system: HT29 colon
[7] = system: UACC-257 melanoma
[8] = system: MALME-3M melanoma
[9] = system: SN12C renal
[10] = system: CCRF-CEM leukemia

| SMILES | TGI [1] [µM] | TGI [2] [µM] | TGI [3] [µM] | TGI [4] [µM] | TGI [5] [µM] | TGI [6] [µM] | TGI [7] [µM] | TGI [8] [µM] | TGI [9] [µM] | TGI [10] [µM] | GI50 [8] [µM] | GI50 [1] [µM] | GI50 [2] [µM] | GI50 [9] [µM] | GI50 [4] [µM] | GI50 [5] [µM] | GI50 [6] [µM] | GI50 [7] [µM] | GI50 [3] [µM] | GI50 [10] [µM] |
| --- | --- | --- | --- | --- | --- | --- | --- | --- | --- | --- | --- | --- | --- | --- | --- | --- | --- | --- | --- | --- |
| CC1=NN(c2cccc(Cl)c2)C2(C1=Cc1cccs1)C(Cl)C(=O)N2c1nc2ccccc2s1 (stereo unspecified) | 66.3 | 45.4 | > 100 | 51.7 | 47.9 | 46 | 57.3 | – | – | – | – | – | – | – | – | – | – | – | – | – |
| COc1ccc(N2C(=O)C(=O)N(C)C2=O)c2ccccc12 | > 10 | > 10 | > 10 | > 10 | > 10 | > 10 | – | > 10 | > 10 | > 10 | – | – | – | – | – | – | – | – | – | – |
| OCC(O)C(O)C(O)C(O)CNCCO/N=C1/C(c2c(O)[nH]c3ccccc23)=Nc2ccccc21 (stereo unspecified) | > 50 | > 50 | > 50 | > 50 | 28 | > 50 | 37.9 | 27.7 | 46.4 | 30.2 | – | – | – | – | – | – | – | – | – | – |
| O=S(=O)(Nc1nccs1)c1ccc([As](=O)(O)O)cc1 | > 100 | > 100 | > 100 | > 100 | > 100 | > 100 | – | > 100 | > 100 | > 100 | – | – | – | – | – | – | – | – | – | – |
| O=[N+]([O-])c1ccc(Cc2nc3cc4ccccc4cc3[nH]2)cc1C(F)(F)F | 35.8 | 38.5 | 25.2 | > 100 | 39 | > 100 | 29.5 | 25.1 | 38 | > 100 | – | – | – | – | – | – | – | – | – | – |
| Fc1ccc(Nc2ncc(-c3cc(F)c(Cl)cc3Cl)s2)cc1Cl | 21.8 | 9.61 | – | > 100 | 20.3 | > 100 | 29.2 | 31.2 | > 100 | – | 14 | 8.05 | 2.98 | 3.91 | 3.44 | 5.63 | 24.3 | 14.3 | – | – |
| CC(C)NC(=O)OCc1nnn2c1CCC2 | > 100 | > 100 | > 100 | > 100 | – | > 100 | > 100 | > 100 | > 100 | > 100 | – | – | – | – | – | – | – | – | – | – |
| O=[N+]([O-])c1ccc(NNN=Nc2ccc(-c3nc4ccccc4[nH]3)cc2)c([N+](=O)[O-])c1 | > 100 | > 100 | > 100 | > 100 | > 100 | > 100 | > 100 | > 100 | > 100 | > 100 | – | – | – | – | – | – | – | – | – | – |
| Clc1ccc(C2CC(c3cccc(Nc4ccncc4)c3)=NN2c2ccccc2)cc1 (stereo unspecified) | 3.45 | 3.65 | 3.37 | 2.83 | 3.84 | 3.62 | 3.83 | 3.14 | 3.31 | 5.41 | 1.58 | 1.83 | 1.91 | 1.78 | 1.42 | 1.87 | 1.69 | 1.8 | 1.73 | 1.94 |
| CC(C)C(=O)Nc1ccc(-c2nc(-c3cccc(OCCN4CCOCC4)c3)c(-c3ccnc(Br)c3)[nH]2)cc1 | 31.3 | 25.4 | 4.46 | 4.67 | > 100 | – | 5.68 | 3.3 | > 100 | > 100 | 1.58 | 4.32 | 3.98 | 4.46 | 2.02 | 4.26 | – | 2.37 | 1.93 | 3.27 |
| COc1ccc(/C=C2\C[C@H]3[C@@H]4CC=C5C[C@@H](OC(C)=O)CC[C@]5(C)[C@H]4CC[C@]3(C)C2=O)cc1OC | – | > 100 | > 100 | > 100 | > 100 | > 100 | > 100 | > 100 | > 100 | > 100 | – | – | – | – | – | – | – | – | – | – |
| N#CC(NNC(=O)c1c(Cl)c(Cl)c(Cl)c(Cl)c1-c1nc2ccc(C(=O)c3ccccc3)cc2[nH]1)c1ccccc1 (stereo unspecified) | 90.8 | – | 31.1 | > 100 | > 100 | > 100 | > 100 | > 100 | 31.1 | > 100 | – | – | – | – | – | – | – | – | – | – |
